Assay results taken from BindingDB's records for patent US11174245 (Boehringer Ingelheim International, 2021).

Target: Epidermal growth factor receptor [695-1022,T790M,C797S,L858R] (Homo sapiens, UniProt P00533, C797S/L858R/T790M)
Test: Biochemical EGFR Inhibition Assays ([…])
Design: 695-1022
Method: 5 μL of EGFR enzyme form in assay buffer (50 mM HEPES pH 7.3, 10 mM MgCl2, 1 mM EGTA, 0.01% Tween 20, 2 mM DTT) are dispensed into columns 1-23, than 5 μL of ATP and ULight-poly-GT substrate (PerkinElmer; TRF0100-M) mix in assay buffer is added to all wells (final assay concentration of the ULight-poly-GT substrate 200 nM). Each of the different EGFR enzyme form assays is available at high ATP levels (final assay concentration 100 μM). After 90 minutes incubation at room temperature 5 μL EDTA (final assay concentration 50 mM) and LANCE Eu-anti-P-Tyr (PT66) antibody (PerkinElmer, AD0069) (final assay concentration 6 nM) mix are added to stop the reaction and start the binding of the antibody. […] Each plate contains 16 wells of a negative control (diluted DMSO instead of test compound; w EGFR enzyme form; column 23) and 16 wells of a positive control (diluted DMSO instead of test compound; w/o EGFR enzyme form; column 24). Negative and positive control values are used for normalization and IC50 values are calculated and analysed using a 4 parametric logistic model.

Chain of Epidermal growth factor receptor [695-1022,T790M,C797S,L858R] (P00533 695-1022 T790M/C797S/L858R): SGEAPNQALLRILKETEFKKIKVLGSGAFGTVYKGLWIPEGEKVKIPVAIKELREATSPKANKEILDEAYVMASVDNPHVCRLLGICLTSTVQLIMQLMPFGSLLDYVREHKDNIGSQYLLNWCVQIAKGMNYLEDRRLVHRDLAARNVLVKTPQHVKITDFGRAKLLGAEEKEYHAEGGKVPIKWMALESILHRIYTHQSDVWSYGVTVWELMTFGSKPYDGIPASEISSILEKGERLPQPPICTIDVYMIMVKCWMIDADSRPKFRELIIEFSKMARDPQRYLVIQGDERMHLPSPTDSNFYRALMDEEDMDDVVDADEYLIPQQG

`COc1ccncc1-c1cc(C(=O)/N=c2\[nH]c3cc(C4CCN(C(C)=O)CC4)ccc3n2CC(C)(C)O)ccn1` [US11174245, # I-031] gave an IC50 of 3 nM.
